In article PMC11195995, “A homogeneous time-resolved fluorescence screen to identify SIRT2 deacetylase and defatty-acylase inhibitors” (PLOS ONE, 2024):
Entries after “also recorded” stand apart in the source; their conditions may differ. Read-outs that look alike come from different tables or passages of the source.

Columns and labels:
A549 cells = test: Cell viability MTT assay; type: cell-based, human; details: 72 hours treatment, concentrations shown in Fig 4F and 4G
Procedure: 5,000 A549 cells were seeded in a 96-well plate in full DMEM. The total volume in each well was 150 μl, and the DMSO concentration was 0.7%. After this treatment period, 10 μl of MTT reagent was added to each well, then the cells were cultured for 4 hour before adding 100 μl of crystal dissolving solution for another 16 hour incubation (Cayman Chemical, catalog #10009365). The absorbance in each well was measured at 570 nm and was used to determine the cell viability by comparing the absorbance of drug treated cells to control (DMSO treated) cells.

SIRT2 [1] = target: T1, SIRT2 (Homo sapiens, UniProt Q8IXJ6); test: SIRT2 binding competition assay using Cy3-myristoyl-H4K16 peptide
T1 sequence (Q8IXJ6 34-356): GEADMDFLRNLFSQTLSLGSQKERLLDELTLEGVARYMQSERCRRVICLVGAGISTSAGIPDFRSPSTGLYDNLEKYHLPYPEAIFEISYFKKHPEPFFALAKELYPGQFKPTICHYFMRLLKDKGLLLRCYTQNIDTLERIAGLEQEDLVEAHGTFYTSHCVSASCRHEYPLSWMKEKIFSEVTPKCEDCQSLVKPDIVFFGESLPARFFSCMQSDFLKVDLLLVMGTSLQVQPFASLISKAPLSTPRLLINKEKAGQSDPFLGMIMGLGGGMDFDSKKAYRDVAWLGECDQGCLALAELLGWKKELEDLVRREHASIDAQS
Procedure: Competition assays where Cy3-myristoyl-H4K16 peptide was displaced from SIRT2 by 1 were performed as previously described. Assays were performed in PBS with 1 mM DTT at 23°C in a quartz microcuvette (160 μl assay volume). Briefly, the fluorescence intensity of 50 nM Cy3-myristoyl-H4K16 peptide was measured in the presence of 2.5 μM SIRT2 and increasing amounts of 1 using excitation/emission wavelengths of 535 nm/560 nm. The final DMSO concentration in each measurement was 0.6%. As previously described, displacement of Cy3-myristoyl-H4K16 peptide from SIRT2 by a competitive ligand results in a reduction of its fluorescence.
(§1) The data from both competition assays show a reduction in probe fluorescence at increasing concentrations of competitor ligands. […] We determined and report absolute IC50 values from the curves which reflect ligand concentrations that reduce the fluorescence by 50% compared to control (no ligand) samples.

[2] = test system: acetylated alpha-tubulin in A549 SIRT2-KO cells; test: Immunofluorescence staining of acetylated alpha-tubulin in A549 SIRT2-KO cells; type: cell-based, human; details: 100 μM, 6 hours
SIRT6 = SIRT6 (Homo sapiens, UniProt Q8N6T7); test: SIRT6 demyristoylase activity assay; type: biochemical; details: 16 μM myristoyl-H4K16, dose-response
Chain of SIRT6 (Q8N6T7 whole entry): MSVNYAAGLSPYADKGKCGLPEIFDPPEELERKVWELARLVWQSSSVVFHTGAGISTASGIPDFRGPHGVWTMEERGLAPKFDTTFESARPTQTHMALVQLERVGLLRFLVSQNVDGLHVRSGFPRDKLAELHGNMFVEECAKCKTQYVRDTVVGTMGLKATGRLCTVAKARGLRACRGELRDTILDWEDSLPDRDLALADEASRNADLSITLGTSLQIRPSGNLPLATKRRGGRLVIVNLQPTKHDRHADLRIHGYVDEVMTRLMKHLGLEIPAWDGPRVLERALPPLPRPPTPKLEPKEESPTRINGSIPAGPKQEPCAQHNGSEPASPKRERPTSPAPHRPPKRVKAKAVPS
Procedure: (§2) The enzymatic activity of SIRT2 was measured using a MALDI-MS—based protocol reported previously. Reactions were performed at 37°C for 2.5 min in PBS containing 1 mM DTT and 1 mM of NAD^+. Acylated H4K16 peptides were used as the substrates at the following concentrations: acetyl-H4K16, 4 μM; decanoyl-H4K16, 0.2 μM; dodecanoyl-H4K16, 0.5 μM; myristoyl-H4K16, 0.5 μM. These concentrations correspond to the enzyme’s Km for each substrate under saturating NAD^+ conditions. The enzyme concentration in each reaction was chosen such that 20% or less of the substrate was processed by the enzyme when the reactions were quenched. In dose-response assays showing a reduction in SIRT2 activity by increasing amounts of ligand, the data was fit with standard sigmoidal dose-response curves as we previously described. We report absolute IC50 values from the curves which reflect ligand concentrations that reduce the activity of the enzyme by 50% compared to control (no ligand) samples. Assays measuring the effects of ligand on SIRT1 deacetylase and SIRT6 demyristoylase activities were performed similarly, as previously described.

SIRT2 [3] = target: T1, SIRT2; test: SIRT2 demyristoylase activity assay (MALDI-MS, myristoyl-H4K16 peptide); type: biochemical
Procedure: as §2

SIRT2 [4] = target: T1, SIRT2; test: SIRT2 deacetylase activity assay (MALDI-MS, acetyl-H4K16 peptide); type: biochemical
Procedure: as §2

[5] = target: T2, human SIRT2 catalytic domain (6xHis-SUMO-SIRT2) (Homo sapiens, UniProt Q8IXJ6); test: biochemical
T2 sequence (Q8IXJ6 34-356): T1 sequence (Q8IXJ6 34-356)

SIRT1 = target: T3, SIRT1 (Homo sapiens, UniProt Q96EB6); test: SIRT1 deacetylase activity assay; type: biochemical; details: 1 μM acetyl-H4K16
T3 sequence (Q96EB6 1-747): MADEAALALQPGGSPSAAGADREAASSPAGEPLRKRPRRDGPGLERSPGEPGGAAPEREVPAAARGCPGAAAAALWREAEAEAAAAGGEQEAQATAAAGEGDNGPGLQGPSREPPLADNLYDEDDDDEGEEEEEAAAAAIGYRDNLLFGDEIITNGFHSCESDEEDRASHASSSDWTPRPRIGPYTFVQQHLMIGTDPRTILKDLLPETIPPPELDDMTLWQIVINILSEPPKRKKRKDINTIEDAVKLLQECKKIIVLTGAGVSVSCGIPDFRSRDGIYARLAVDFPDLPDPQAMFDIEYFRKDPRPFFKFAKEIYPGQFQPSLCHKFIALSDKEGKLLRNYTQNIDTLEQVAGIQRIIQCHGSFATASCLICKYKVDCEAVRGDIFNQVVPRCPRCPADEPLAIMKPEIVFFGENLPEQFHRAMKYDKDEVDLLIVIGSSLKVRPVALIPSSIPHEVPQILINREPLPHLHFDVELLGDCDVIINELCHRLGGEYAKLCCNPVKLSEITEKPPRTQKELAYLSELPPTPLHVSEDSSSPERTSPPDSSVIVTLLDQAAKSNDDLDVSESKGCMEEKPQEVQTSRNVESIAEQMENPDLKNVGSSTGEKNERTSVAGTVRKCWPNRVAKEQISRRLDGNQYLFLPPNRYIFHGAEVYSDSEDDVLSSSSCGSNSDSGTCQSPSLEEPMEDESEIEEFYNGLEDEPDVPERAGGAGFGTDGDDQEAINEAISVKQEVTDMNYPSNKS
Procedure: as §2

[6] = test system: acetylated alpha-tubulin in A549 cells; test: Immunofluorescence staining of acetylated alpha-tubulin in A549 cells; type: cell-based, human; details: 100 μM, 6 hours
Procedure: 100,000 A549 or A549 SIRT2-KO cells were seeded on a coverslip that was placed in the well of 6-well plate, and the cells were grown overnight in full DMEM. […] The cells were then washed three times with PBS, fixed with 4% paraformaldehyde for 10 min, then washed again three times with PBS. Cells were incubated with 0.2% Triton X-100 for 15 minutes on a shaker followed by three more PBS washes. The cells were then blocked with 2% BSA in PBS for 1 hour at room temperature. […] Slides were imaged using a Keyence BZ-X710 fluorescence microscope with the following filter settings: DAPI, excitation/emission was 300–400 nm/438-484 nm; Alexa Fluor 488, excitation/emission was 448 nm/500-550 nm. All images were obtained under identical conditions, and fluorescence intensities were quantified using Fiji/ImageJ without any manipulation to the images. The fluorescence intensity from at least six cells per coverslip were randomly selected and measured targeting the cytosol (for measuring acetylated alpha-tubulin levels via Alexa Fluor 488) or the nucleus (for measuring nuclear DNA staining via DAPI). Relative fluorescence intensity was calculated as the ratio of Alexa Fluor 488/DAPI intensities. […]

SIRT2 [7] = target: T1, SIRT2; test: SIRT2 de-dodecanoylase activity assay (MALDI-MS, dodecanoyl-H4K16 peptide); type: biochemical; details: 0.5 μM dodecanoyl-H4K16, 1 mM NAD+
Procedure: as §2

SIRT2 [8] = target: T1, SIRT2; test: SIRT2 de-decanoylase activity assay (MALDI-MS, decanoyl-H4K16 peptide); type: biochemical; details: 0.2 μM decanoyl-H4K16, 1 mM NAD+
Procedure: as §2

[9] = target: SIRT2—decanoyl-peptide complex (Homo sapiens, UniProt Q8IXJ6); test: 1-aminoanthracene binding competition assay, SIRT2—decanoyl-peptide complex
Procedure: (§3) Competition assays where 1-aminoanthracene was displaced from SIRT2 by 2, 4, 5, and 6 were performed as previously reported where we described its displacement from SIRT2 by 3. The assays were also cuvette-based and performed at 23°C in PBS with 1 mM DTT, and the final DMSO concentration was 0.6%. Briefly, the fluorescence intensity of 100 nM 1-aminoanthracene was measured in the presence of 4 μM SIRT2 and increasing amounts of ligand using excitation/emission wavelengths of 390 nm/520 nm. As previously described, displacement of 1-aminoanthracene from SIRT2 by a competitor results in a reduction of its fluorescence.
as §1

SIRT2 [10] = target: T1, SIRT2; test: 1-aminoanthracene binding competition assay, SIRT2 alone
Procedure: as §3
We determined and report absolute IC50 values from the curves which reflect ligand concentrations that reduce the fluorescence by 50% compared to control (no ligand) samples.

SIRT2 [11] = target: T1, SIRT2; test: Intact protein MALDI-MS for covalent adduct on SIRT2; details: 100 μM ligand, 10 μM SIRT2, 37°C, 30 minutes
Procedure: (A) MALDI-MS spectra of 10 μM SIRT2 after incubation in PBS with 1% DMSO at 37°C for 30 minutes. (B) MALDI-MS spectra of 10 μM SIRT2 after incubation with 100 μM of 2 in PBS with 1% DMSO at 37°C for 30 minutes. The predicted monoisotopic mass for this SIRT2 protein was 36552 Da, and the predicted average mass was 36576 Da; thus, the main peaks represented +1 ions in the isotopic cluster. […] The intact protein spectra were acquired with a Bruker microflex instrument in linear, positive ion mode using sinapinic acid as the matrix. Sinapinic acid was dissolved in 50% acetonitrile/50% water with 0.1% trifluoroacetic acid, which was also used to dilute protein prior to spotting on the MALDI plate. (TIFF)

SIRT2 [12] = target: T1, SIRT2; details: read-out: Kd for SIRT2 alone; cited from earlier work
SIRT2 [13] = target: T1, SIRT2; details: read-out: Deacetylase IC50; previously published; cited from earlier work
[14] = target: SIRT2—decanoyl peptide complex; set-up: method as in PMID 32941003; details: cited from earlier work
SIRT2 [15] = target: T1, SIRT2; details: read-out: IC50 for SIRT2 demyristoylase activity; cited from earlier work

## O=c1/c(=C\c2cc(Br)cc(I)c2O)sc2nc3ccccc3n12 [compound 1]
A549 cells
  viability / toxicity in A549 cells (MTT): did not cause toxicity; also recorded: no effect
SIRT2 [1]; 50 nM Cy3 peptide, 2.5 μM SIRT2, 23°C, read-out: IC50 for displacement of Cy3-myristoyl-H4K16 peptide from SIRT2
  IC50: 16 µM
SIRT2 [1]; calculated from IC50 of Cy3-myristoyl-H4K16 peptide competition assay
  Kd: 5 µM
[2]
  level of acetylated alpha-tubulin (immunofluorescence): no effect
SIRT6
  effect on the demyristoylase activity of SIRT6: no effect
SIRT2 [3]
  IC50: 37 µM
SIRT2 [3]; 50 μM compound
  effect on the demyristoylase activity of SIRT2: considerably most effective
SIRT2 [4]
  IC50: 7 µM
[5]
  IC50: 6.92 µM
SIRT1
  IC50: 32 µM
[6]
  level of acetylated alpha-tubulin (immunofluorescence): significantly increased; also recorded: enhanced fluorescence
SIRT2 [7]
  IC50: 39 µM
SIRT2 [8]
  IC50: 8 µM

## Oc1ccc(Br)cc1I [compound 2, 4-bromo-2-iodophenol]
[9]
  Kd: 3 µM
[9]; SIRT2-decanoyl peptide complex, 100 nM 1-aminoanthracene, 4 μM SIRT2, 10 μM decanoyl-H4K16 peptide
  IC50: 7 µM
[9]; stronger for the complex
  affinity for SIRT2—decanoyl-peptide complex compared to SIRT2 alone: 23 fold
SIRT2 [3]; 0.5 μM myristoyl-H4K16, 1 mM NAD+, 37°C, absolute IC50, "no effect" = 200 μM compound did not significantly affect SIRT2 activity
  Demyristoylase IC50: no effect
SIRT2 [4]
  IC50: 9 µM
SIRT2 [10]; SIRT2 only, 100 nM 1-aminoanthracene, 4 μM SIRT2
  IC50: 75 µM
SIRT2 [10]; read-out: SIRT2 Kd
  Kd: 68 µM
SIRT2 [11]
  covalent reaction with SIRT2 (intact protein mass spectrometry): does not irreversibly attach to SIRT2 or form any type of covalent adduct; also recorded: does not covalently react with SIRT2

## CC(C)c1cccc(C(C)C)c1O [compound 3, 2-6-diisopropylphenol]
SIRT2 [12]
  Kd: 25 µM
SIRT2 [13]
  IC50: 140 µM
[14]
  Kd: 7 µM
SIRT2 [15]
  IC50: 195 µM
